Source: PubChem BioAssay (NCI)
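Cells were grown in 96-well plates and exposed to each compound for 48 hours at five concentrations; endpoints were interpolated linearly between bracketing concentrations, or set to the highest concentration if not reached. Here, GI50 denotes the concentration required for 50% inhibition of growth. TGI is the concentration that stops growth completely.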

How the values were obtained:
Test in all cases: NCI-60 cell line screen, 48 h
[1] = system: CAKI-1 renal
[2] = system: PC-3 prostate
[3] = system: SF-268 CNS
[4] = system: MCF7 breast
[5] = system: UO-31 renal
[6] = system: OVCAR-8 ovarian
[7] = system: HS 578T breast
[8] = system: A549 NSCLC
[9] = system: MALME-3M melanoma
[10] = system: HCT-116 colon
[11] = system: SNB-75 CNS
[12] = system: BT-549 breast
[13] = system: OVCAR-3 ovarian
[14] = system: NCI-H23 lung
[15] = system: OVCAR-5 ovarian
[16] = system: HOP-92 NSCLC
[17] = system: OVCAR-4 ovarian
[18] = system: TK-10 renal
[19] = system: A498 renal
[20] = system: RXF 393 renal
[21] = system: UACC-257 melanoma
[22] = system: DU-145 prostate
[23] = system: ACHN renal
[24] = system: K-562 leukemia
[25] = system: T-47D breast
[26] = system: UACC-62 melanoma
[27] = system: RPMI-8226 leukemia
[28] = system: MDA-MB-231 breast
[29] = system: SK-MEL-2 melanoma
[30] = system: SF-539 CNS
[31] = system: NCI-H522 lung
[32] = system: MDA-MB-435
[33] = system: HT29 colon
[34] = system: U251 CNS
[35] = system: LOX IMVI melanoma
[36] = system: SNB-19 CNS
[37] = system: SW-620 colon
[38] = system: SF-295 CNS
[39] = system: HL-60(TB) leukemia
[40] = system: SK-OV-3 ovarian
[41] = system: SK-MEL-5 melanoma
[42] = system: SN12C renal
[43] = system: NCI-H226 lung
[44] = system: HOP-62 NSCLC
[45] = system: 786-0 renal
[46] = system: NCI/ADR-RES ovarian
[47] = system: KM12 colon
[48] = system: HCC-2998 colon
[49] = system: SK-MEL-28 melanoma
[50] = system: HCT-15 colon
[51] = system: NCI-H460 lung
[52] = system: COLO 205 colon
[53] = system: EKVX NSCLC
[54] = system: M14 melanoma
[55] = system: MOLT-4 leukemia

`COC(=O)c1cc([N+](=O)[O-])cc([N+](=O)[O-])c1Cl` showed a GI50 [1] of 1730 nM, a TGI [1] of 3.28 µM and a GI50 [2] of 1880 nM. It also gave a TGI [2] of 3.91 µM, a GI50 [3] of 12.7 µM and a TGI [3] of 25.4 µM. It also gave a GI50 [4] of 1940 nM, a TGI [4] of 4.6 µM and a GI50 [5] of 1860 nM. The TGI [5] was 3.95 µM, the GI50 [6] was 2010 nM and the TGI [6] was 4.38 µM. It also gave a GI50 [7] of 2280 nM, a TGI [7] of 5.86 µM and a GI50 [8] of 20.4 µM. It also gave a TGI [8] of 46.8 µM, a GI50 [9] of 1950 nM and a TGI [9] of 4.1 µM. For the same compound, the GI50 [10] was 1060 nM, the TGI [10] was 2.63 µM and the GI50 [11] was 1930 nM. The TGI [11] was 5.07 µM, the GI50 [12] was 10.7 µM and the TGI [12] was 22.6 µM. The GI50 [13] was 1780 nM, the TGI [13] was 3.2 µM and the GI50 [14] was 19.3 µM. The TGI [14] was 69.6 µM, the GI50 [15] was 2700 nM and the TGI [15] was 10.2 µM. For the same compound, the GI50 [16] was 1640 nM, the TGI [16] was 3.04 µM and the GI50 [17] was 1760 nM. The TGI [17] was 3.17 µM, the GI50 [18] was 2480 nM and the TGI [18] was 6.48 µM. It also gave a GI50 [19] of 17 µM, a TGI [19] of 30.7 µM and a GI50 [20] of 1720 nM. For the same compound, the TGI [20] was 3.12 µM, the GI50 [21] was 1580 nM and the TGI [21] was 2.98 µM. The GI50 [22] was 2300 nM, the TGI [22] was 6.6 µM and the GI50 [23] was 1760 nM. The TGI [23] was 3.21 µM, the GI50 [24] was 2240 nM and the TGI [24] was > 100 µM. For the same compound, the GI50 [25] was 1710 nM, the TGI [25] was 4.21 µM and the GI50 [26] was 1550 nM. For the same compound, the TGI [26] was 3.1 µM, the GI50 [27] was 2400 nM and the TGI [27] was 5.66 µM. For the same compound, the GI50 [28] was 2340 nM, the TGI [28] was 5.79 µM and the GI50 [29] was 3.52 µM. For the same compound, the TGI [29] was 12.6 µM, the GI50 [30] was 1980 nM and the TGI [30] was 4.22 µM. For the same compound, the GI50 [31] was 1820 nM, the TGI [31] was 3.31 µM and the GI50 [32] was 1890 nM. It also gave a TGI [32] of 3.64 µM, a GI50 [33] of 1880 nM and a TGI [33] of 3.49 µM. It also gave a GI50 [34] of 2140 nM, a TGI [34] of 4.78 µM and a GI50 [35] of 1750 nM. For the same compound, the TGI [35] was 3.36 µM, the GI50 [36] was 17.4 µM and the TGI [36] was 34.5 µM. It also gave a GI50 [37] of 1870 nM, a TGI [37] of 3.52 µM and a GI50 [38] of 19.3 µM. It also gave a TGI [38] of 36.9 µM, a GI50 [39] of 3.98 µM and a TGI [39] of 27.5 µM. It also gave a GI50 [40] of 17.5 µM, a TGI [40] of 31.3 µM and a GI50 [41] of 3.03 µM. It also gave a TGI [41] of 10.9 µM, a GI50 [42] of 3.15 µM and a TGI [42] of 11 µM. It also gave a GI50 [43] of 3.58 µM, a TGI [43] of 13.9 µM and a GI50 [44] of 2650 nM. It also gave a TGI [44] of 8.09 µM, a GI50 [45] of 1790 nM and a TGI [45] of 3.22 µM. The GI50 [46] was 2800 nM, the TGI [46] was 8.71 µM and the GI50 [47] was 11.3 µM. For the same compound, the TGI [47] was 23.6 µM, the GI50 [48] was 14.4 µM and the TGI [48] was 28.3 µM. The GI50 [49] was 1940 nM, the TGI [49] was 4.08 µM and the GI50 [50] was 2190 nM. The TGI [50] was 5.44 µM, the GI50 [51] was 13.1 µM and the TGI [51] was 39 µM. The GI50 [52] was 1650 nM, the TGI [52] was 3.1 µM and the GI50 [53] was 14.1 µM. It also gave a TGI [53] of 28.8 µM.
With `O=C1C(Sc2ccc3ccccc3c2)=C(Sc2ccc3ccccc3c2)C(=O)c2ccccc21` the TGI [2] was 31.8 µM, the TGI [3] was 28.7 µM and the TGI [4] was 40.2 µM. The TGI [5] was 15.8 µM, the TGI [6] was 22.2 µM and the TGI [7] was 62.3 µM. The TGI [8] was 21.7 µM, the TGI [10] was 20.2 µM and the TGI [11] was 28.7 µM. It also gave a TGI [12] of 83.2 µM, a TGI [14] of 22.1 µM and a TGI [15] of 27.1 µM. The TGI [16] was 22.3 µM, the TGI [17] was 15.2 µM and the TGI [19] was 33.4 µM. It also gave a TGI [20] of 32.6 µM, a TGI [21] of 16.3 µM and a TGI [22] of 84.4 µM. The TGI [23] was 17.3 µM, the TGI [24] was 19 µM and the TGI [54] was 23.7 µM. The TGI [25] was 4.62 µM, the TGI [26] was 14.2 µM and the TGI [28] was 18.3 µM. The TGI [29] was 19.3 µM, the TGI [30] was 22.8 µM and the TGI [31] was 10.6 µM. The TGI [32] was 31.5 µM, the TGI [33] was 29 µM and the TGI [34] was 19.1 µM. For the same compound, the TGI [35] was 47.8 µM, the TGI [36] was 20.3 µM and the TGI [37] was 16.5 µM. The TGI [55] was 5.9 µM, the TGI [39] was 11.2 µM and the TGI [40] was 68.2 µM. For the same compound, the TGI [41] was 12.4 µM, the TGI [42] was 24.7 µM and the TGI [43] was 37.4 µM. It also gave a TGI [44] of 27.8 µM, a TGI [45] of 25.3 µM and a TGI [46] of 44.9 µM. The TGI [48] was 19.6 µM, the TGI [49] was 28.5 µM and the TGI [50] was 23.5 µM. For the same compound, the TGI [51] was > 100 µM, the TGI [52] was 12.8 µM and the TGI [53] was 23.8 µM.
